Test results from PubChem BioAssay AID2060892 (Molecular Pharmacology Branch, DTP, NCI, 2025).
Where “and” joins values, the source holds several entries; their conditions need not be identical. Equal entries are not always repeated.

Tested on: HOP-62 complex spheroids with HUVEC/MSC, viability
Test: Anticancer human tumor HOP-62 cell line growth inhibition [RAS];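 further: spheroids exposed to agents for seven days before readout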;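 on viability, T/C: 100% = DMSO vehicle control viability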
Conditions: for viability, T/C: stronger effect = lower value
How it was run: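 Multi-cell-type spheroids: tumor cells plus HUVEC endothelial cells and mesenchymal stem cells. RAS-pathway inhibitors were combined with targeted agents, each dosed in half-log steps down from clinical Cmax, or from 10 microM when Cmax was unknown.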

[1] = curve of first compound, second compound 0.00316 µM
[2] = curve of first compound, second compound 0.01 µM
[3] = curve of first compound, second compound 0.0316 µM
[4] = curve of first compound, second compound 0.1 µM
[5] = curve of first compound, second compound 0.316 µM
[6] = curve of first compound, second compound 1 µM

CCc1c2c(nc3ccc(O)cc13)-c1cc3c(c(=O)n1C2)COC(=O)[C@]3(O)CC + C=CC(=O)N1CCN(c2nc(OCC3CCCN3C)nc3c(F)c(-c4nc(N)cc(C)c4C(F)(F)F)c(Cl)cc23)C(C)C1
IC50 [1]: < 0.949 nM | IC50 [2]: < 0.949 nM | IC50 [3]: < 0.949 nM | IC50 [4]: < 0.949 nM | IC50 [5]: < 0.949 nM | IC50 [6]: < 0.949 nM | viability, T/C (second compound 0.00316 µM, first compound 0.000949 µM): 46.5% | viability, T/C (second compound 0.00316 µM, first compound 0.003 µM): 11.8% | viability, T/C (second compound 0.00316 µM, first compound 0.00949 µM): 6.88% | viability, T/C (second compound 0.00316 µM, first compound 0.03 µM): 3.96% | viability, T/C (second compound 0.00316 µM, first compound 0.0949 µM): 2.91% | viability, T/C (second compound 0.00316 µM, first compound 0.3 µM): 4.33% | viability, T/C (second compound 0.01 µM, first compound 0.000949 µM): 47.3% | viability, T/C (second compound 0.01 µM, first compound 0.003 µM): 11.6% | viability, T/C (second compound 0.01 µM, first compound 0.00949 µM): 6.73% | viability, T/C (second compound 0.01 µM, first compound 0.03 µM): 4.31% | viability, T/C (second compound 0.01 µM, first compound 0.0949 µM): 3.65% | viability, T/C (second compound 0.01 µM, first compound 0.3 µM): 2.46% | viability, T/C (second compound 0.0316 µM, first compound 0.000949 µM): 42.5% | viability, T/C (second compound 0.0316 µM, first compound 0.003 µM): 9.52% | viability, T/C (second compound 0.0316 µM, first compound 0.00949 µM): 5.4% | viability, T/C (second compound 0.0316 µM, first compound 0.03 µM): 3.77% | viability, T/C (second compound 0.0316 µM, first compound 0.0949 µM): 2.66% | viability, T/C (second compound 0.0316 µM, first compound 0.3 µM): 2.57% | viability, T/C (second compound 0.1 µM, first compound 0.000949 µM): 47.7% | viability, T/C (second compound 0.1 µM, first compound 0.003 µM): 10.1% | viability, T/C (second compound 0.1 µM, first compound 0.00949 µM): 6.42% | viability, T/C (second compound 0.1 µM, first compound 0.03 µM): 3.2% | viability, T/C (second compound 0.1 µM, first compound 0.0949 µM): 3.67% | viability, T/C (second compound 0.1 µM, first compound 0.3 µM): 2.48% | viability, T/C (second compound 0.316 µM, first compound 0.000949 µM): 40.5% | viability, T/C (second compound 0.316 µM, first compound 0.003 µM): 10.3% | viability, T/C (second compound 0.316 µM, first compound 0.00949 µM): 8.01% | viability, T/C (second compound 0.316 µM, first compound 0.03 µM): 5.51% | viability, T/C (second compound 0.316 µM, first compound 0.0949 µM): 4.05% | viability, T/C (second compound 0.316 µM, first compound 0.3 µM): 2.72% | viability, T/C (second compound 1 µM, first compound 0.000949 µM): 43.2% | viability, T/C (second compound 1 µM, first compound 0.003 µM): 12.4% | viability, T/C (second compound 1 µM, first compound 0.00949 µM): 6.37% | viability, T/C (second compound 1 µM, first compound 0.03 µM): 4.48% | viability, T/C (second compound 1 µM, first compound 0.0949 µM): 2.92% | viability, T/C (second compound 1 µM, first compound 0.3 µM): 2.71%

CC(C)NCC(C(=O)N1CCN(c2ncnc3c2C(C)CC3O)CC1)c1ccc(Cl)cc1 (stereo unspecified) + C=CC(=O)N1CCN(c2nc(OCC3CCCN3C)nc3c(F)c(-c4nc(N)cc(C)c4C(F)(F)F)c(Cl)cc23)C(C)C1
IC50 [1]: 1050 nM | IC50 [2]: 710 nM | IC50 [3]: 464 nM | IC50 [4]: 450 nM | IC50 [5]: 554 nM | IC50 [6]: 300 nM | viability, T/C (second compound 0.00316 µM, first compound 0.0316 µM): 84.3% | viability, T/C (second compound 0.00316 µM, first compound 0.1 µM): 78.1% | viability, T/C (second compound 0.00316 µM, first compound 0.316 µM): 63.4% | viability, T/C (second compound 0.00316 µM, first compound 1 µM): 53.4% | viability, T/C (second compound 0.00316 µM, first compound 3.16 µM): 31% | viability, T/C (second compound 0.00316 µM, first compound 10 µM): 12.8% | viability, T/C (second compound 0.01 µM, first compound 0.0316 µM): 71.7% | viability, T/C (second compound 0.01 µM, first compound 0.1 µM): 67.5% | viability, T/C (second compound 0.01 µM, first compound 0.316 µM): 60.2% | viability, T/C (second compound 0.01 µM, first compound 1 µM): 46.3% | viability, T/C (second compound 0.01 µM, first compound 3.16 µM): 27.1% | viability, T/C (second compound 0.01 µM, first compound 10 µM): 15.3% | viability, T/C (second compound 0.0316 µM, first compound 0.0316 µM): 74.9% | viability, T/C (second compound 0.0316 µM, first compound 0.1 µM): 60.5% | viability, T/C (second compound 0.0316 µM, first compound 0.316 µM): 53.7% | viability, T/C (second compound 0.0316 µM, first compound 1 µM): 39.2% | viability, T/C (second compound 0.0316 µM, first compound 3.16 µM): 39% | viability, T/C (second compound 0.0316 µM, first compound 10 µM): 12% | viability, T/C (second compound 0.1 µM, first compound 0.0316 µM): 70% | viability, T/C (second compound 0.1 µM, first compound 0.1 µM): 57.8% | viability, T/C (second compound 0.1 µM, first compound 0.316 µM): 60.7% | viability, T/C (second compound 0.1 µM, first compound 1 µM): 34.6% | viability, T/C (second compound 0.1 µM, first compound 3.16 µM): 25.4% | viability, T/C (second compound 0.1 µM, first compound 10 µM): 13.6% | viability, T/C (second compound 0.316 µM, first compound 0.0316 µM): 61.7% | viability, T/C (second compound 0.316 µM, first compound 0.1 µM): 81.3% | viability, T/C (second compound 0.316 µM, first compound 0.316 µM): 55.5% | viability, T/C (second compound 0.316 µM, first compound 1 µM): 39.4% | viability, T/C (second compound 0.316 µM, first compound 3.16 µM): 23.5% | viability, T/C (second compound 0.316 µM, first compound 10 µM): 12.6% | viability, T/C (second compound 1 µM, first compound 0.0316 µM): 69.8% | viability, T/C (second compound 1 µM, first compound 0.1 µM): 57.1% | viability, T/C (second compound 1 µM, first compound 0.316 µM): 50.2% | viability, T/C (second compound 1 µM, first compound 1 µM): 39.4% | viability, T/C (second compound 1 µM, first compound 3.16 µM): 23.9% | viability, T/C (second compound 1 µM, first compound 10 µM): 11.4%

NC1c2ccccc2OC12CCN(c1cnc3c(N4CCCc5ncccc54)n[nH]c3n1)CC2 (stereo unspecified)
viability, T/C (compound 0.0316 µM): 106% [middle of 4 runs] | IC50 (curve of compound): 4450 nM and > 10000 nM and 9130 nM
